Entries after “also recorded” stand apart in the source; their conditions may differ.
Tested on: Reserpine-Induced Tardive Dyskinesia in Mice
Assay: Reserpine-induced tardive dyskinesia in mice, vacuous chewing movements (VCM) count
Assay type: in vivo
Settings: for VCM frequency per 10 min. Mean ± S.E.M.: 1 hour post-administration, male CD1 mice
Experimental: Male CD1 mice (Charles River Laboratories, France), about 3 month-old were used. During the acclimatization period, animals were housed 5 per cage, in Makrolon type IlIl cages, in the animal room (temperature: 20±2° C., humidity: minimum 45%, air changes: >12 per hour, light/dark cycle of 12 h/12 h [on at 7:00 A.M:]. Animals were allowed a minimum of 5 days period before experiment for acclimatization.
Reserpine (Sigma) was dissolved in glacial acetic acid, diluted in water and administered s.c. at 1 mg/kg. 2 injections were given separated by 48 h. SPM 927 was studied at 3 doses (3, 10 and 30 mg/kg; i.p.) given as a single injection. Clonazepam was administered at 1 mg/kg, i.p. (3).
Reserpine was given twice (Day 1 and Day 3) and SPM 927 was administered 24 h after the last injection of reserpine (Day 4). Behavioral assessment was carried out 1 hour after drug injection (for 10 min). For the behavioral assessment, animals were placed in a plexiglass cage and after 5 min period of habituation, vacuous chewing movements (VCM) were counted for 10 min. VCM occurring during a grooming period were not taken into account.
Results are expressed as means±S.E.M.s of ten individual values. Statistical analyses was done with ANOVA (one way) and Dunnett's t-test. Significance was considered as p<0.05.

In the case of COC[C@@H](NC(C)=O)C(=O)NCc1ccccc1 [SPM 927, (R)-2-acetamide-N-benzyl-3-methoxypropionamide], the “effect on reserpine-induced dyskinesia (in words)” value (3 mg/kg i.p., lowest dose) is reported as “little or no effect”, the “effect on number of vacuous chewing movements (in words)” value (10 mg/kg i.p.) is reported as “reduced the number of vacuous chewing movements” and the “effect on number of vacuous chewing movements (in words)” value (30 mg/kg i.p., highest dose, statistically significant (p<0.05 versus vehicle group)) is reported as “reduced the number of vacuous chewing movements”. The “VCM frequency per 10 min. Mean ± S.E.M.” value (Reserpine 1 mg/kg s.c. + SPM 927 3 mg/kg i.p., reserpine + vehicle group 41.4 ± 6.4) was 48.6 ± 10.6 per 10 min, the “VCM frequency per 10 min. Mean ± S.E.M.” value (Reserpine 1 mg/kg s.c. + SPM 927 10 mg/kg i.p., reserpine + vehicle group 41.4 ± 6.4) was 26.6 ± 5.7 per 10 min and the “VCM frequency per 10 min. Mean ± S.E.M.” value (Reserpine 1 mg/kg s.c. + SPM 927 30 mg/kg i.p., p < 0.05 versus reserpine + vehicle group (41.4 ± 6.4)) was 23.9 ± 7.9 per 10 min. For the same compound, the “overall effect on reserpine-induced tardive dyskinesia / vacuous chewing movements (in words)” value (mice, no dose stated) was “attenuates reserpine induced vacuous chewing movements; also recorded: significant efficacy in reducing tardive dyskinesia”.
